This is an account of results in US4025556A, “Quaternary ammonium-hydroxyaryl compounds” (Ciba-Geigy AG, priority 1967, dated 1977).

Type in all cases: cell-based
One assay deals with Escherichia coli. The assay is described as follows: Minimal inhibitory concentration (MIC), gradient plate test, bacteriostasis. The note with it: brain heart infusion agar, 24 hours at 37° C. An excerpt: (§1) Measuring the minimal inhibitory concentration (MIC) towards bacteria and fungi in the gradient plate test
(§2) The compounds of the formula (1) in suitable formulations (for example as solutions in dimethylsulphoxide) of certain concentrations are mixed with warm brain heart infusion agar (bacteria) and Mycophil-Agar (fungi). The liquid mixtures are poured over a solidified, wedge-shaped basic agar layer and likewise allowed to solidify.
(§3) The test organisms are then applied by means of a Pasteur pipette in lines at right angles to the gradient. After an incubation period of 24 hours at 37° C. (bacteria) and 72 hours at 30° C. (fungi) the length of the germs grown on the inoculation line is measured and expressed in parts per million of active substance.

For assay [1], the system named is Staphylococcus aureus. The assay is described as above. The note with it: brain heart infusion agar, 24 hours at 37° C.
Excerpt: as §1, §2, §3

Assay [2] relates to Trichophyton mentagrophytes. The assay is described as follows: Minimal inhibitory concentration (MIC), gradient plate test, fungistasis. The note with it: Mycophil-Agar, 72 hours at 30° C.
Excerpt: as §1, §2, §3

Assay [3] deals with Aspergillus niger. The assay is described as above. To be noted: Mycophil-Agar, 72 hours at 30° C.
Excerpt: as §1, §2, §3

The subject of a further assay is Rhizopus nigricans. Description: Minimal inhibitory concentration (MIC), dilution test, fungistasis. To be noted: beerwort solution, 72 hours at 30° C. The protocol:
(§4) Measuring the minimal inhibitory concentration (MIC) against bacteria and fungi in the dilution test
(§5) The minimal inhibitory concentration (MIC) is measured by a test derived from standardized methods which makes available an approximation to absolute minimal inhibitory values of an active substance.
(§6) A solution of 0.4% and 0.12% strength each in dimethylsulphoxide is prepared with the active substances. 0.25 ml of each of these solutions is added to 9.75 ml of sterile brain heart infusion broth (bacteria) and beerwort solution (fungi) respectively. By continual dilution to 10 times the volume two series are obtained which are combined and thereby converted into the following continuous dilution series:
(§7) 100, 30, 10, 3, 1 . . . part per million of active substance.
(§8) The solutions are inoculated with the bacterium Staphylococcus aureus and with fungi Aspergillus niger and Rhizopus nigricans respectively. Then incubation is performed for 48 hours at 37° C. (bacteriostasis) with Staphylococcue aureus and for 72 hours at 30° C. (fungistasis)with the fungi.

Assay [4] has as its system Aspergillus niger. The assay is described as above. To be noted: beerwort solution, 72 hours at 30° C. The protocol: as §4, §5, §6, §7, §8
The subject of assay [5] is Aspergillus niger. The assay is described as follows: Activity of impregnated fabrics against fungi (agar plate, inhibitory zone and growth). As for the experimental part:
(§9) Samples of C. 100 g each of cotton creton are impregnated on a padder with a 1% solution of one of the compounds of the formula (1) in isopropanol at 20° C and then squeezed to a weight increase of 100%.
(§10) Samples of 100 g each of wool cheviot were treated in an identical manner.
(§11) After having been dried at 30° to 40° C. the fabrics contain 1% of active substance referred to their own weight.
To test the activity against fungi round blanks of 25 mm diameter are placed on beerwort agar plates and then inoculated with Aspergillus niger, and the plates are then incubated for 72 hours at 30° C.
(§12) The evaluation extends, on one hand, to the inhibitory zones (IZ in mm) around the blanks and, on the other hand, on the growth (G in %) detected under a microscope underneath and/or on the fabric: […]

Assay [6] has as its system Staphylococcus aureus. Description: Minimal inhibitory concentration (MIC), dilution test, bacteriostasis. To be noted: brain heart infusion broth, 48 hours at 37° C. The protocol:
as §4, §5, §6, §7, §8

Assay [7] relates to Staphylococcus aureus. Description: Antibacterial properties of impregnated paper (agar plate, inhibitory zone and growth). To be noted: paper with 1% of active substance, 24 hours at 37° C. An excerpt: (§13) Crude paper, which consists of 90% of bleached sulphite cellulose and 10% of birch pulp, is impregnated in a sizing press with a 2.5% solution of the compound of the formula (11) in methanol+water 2:1 to a weight increase of 40%.
(§14) The dried paper contains 1% of active substance referred to its original weight.
To test its antibacterial properties round blanks of 10 mm diameter of the impregnated paper are placed on brain heart infusion agar plates previously inoculated with Staphylococcus aureus, and the plates are then incubated for 24 hours at 37° C.
(§15) The evaluation extends, on one hand, to the inhibitory zone (IZ in mm) around the paper blanks and, on the other hand, to the microscopically discernible growth (G in %) underneath and/or on the blanks: […]

For assay [8], the system named is Staphylococcus aureus. Description: Activity of impregnated fabrics against bacteria (agar plate, inhibitory zone and growth). As for the experimental part:
as §9, §10, §11
To test the activity against bacteria round blanks of 10 mm diameter of the impregnated fabrics, one half of which untreated and the other after having been watered for 24 hours at 29° C., are placed on brain infusion agar plates previously inoculated with Staphylococcus aureus. The plates are then incubated for 24 hours at 37° C.
as §12

Assay [9] concerns Aspergillus niger. Description: Fungicidal activity of impregnated paper (agar plate, inhibitory zone and growth). To be noted: paper with 1% of active substance, 72 hours at 30° C. As for the experimental part: as §13, §14
For testing its fungicidal activity round blanks of 25 mm diameter are placed on Mycophil-Agar plates and inoculated with Aspergillus niger, and the plates are incubated for 72 hours at 30° C.
as §15

Where [10] appears, read: cotton with 1% of active substance, untreated.
The mark [11] stands for this setting: wool with 1% of active substance, untreated.

With `CCCCCCCCCCCC[N+](CCO)(CCO)Cc1ccccc1.[O-]c1cccc2cccnc12` [L], in the assay on Escherichia coli, the “Minimal inhibitory concentration, bacteriostasis, Escherichia coli” value is given as 20 ppm. For the same compound, the “Minimal inhibitory concentration, bacteriostasis, Staphylococcus aureus” value with Staphylococcus aureus [1] was found to be 3 ppm. Moreover, the “Minimal inhibitory concentration, fungistasis, Trichophyton mentagrophytes” value in assay [2] was 6 ppm. The “Minimal inhibitory concentration, fungistasis, Aspergillus niger” value in the assay on Aspergillus niger [3] is reported as 6 ppm.

“benzyl-bis-(2-hydroxyethyl)-dodecyl ammonium pentachlorophenolate”: the “Inhibitory values in ppm in fungistasis, Rhizopus nigricans (MIC)” value in the assay with Rhizopus nigricans amounted to 10 ppm. In addition, the “Inhibitory values in ppm in fungistasis, Aspergillus niger (MIC)” value with Aspergillus niger [4] worked out at 10 ppm. Moreover, the “inhibitory zone (IZ)” value in the assay on Aspergillus niger [5] (setting [10]) came out at 7 mm; with Aspergillus niger [5] (cotton with 1% of active substance, watered), 4 mm; in the assay with Aspergillus niger [5] (setting [11]) it was 0 mm; in the assay on Aspergillus niger [5] (wool with 1% of active substance, watered), 0 mm; with Staphylococcus aureus [7], 2.5 mm; with Staphylococcus aureus [8] (setting [10]), 6 mm. The “inhibitory zone (IZ)” value in the assay with Staphylococcus aureus [8] (cotton with 1% of active substance, watered 24 hours at 29° C) is 5 mm; in the assay with Staphylococcus aureus [8] (setting [11]) it was 6 mm; in the assay on Staphylococcus aureus [8] (wool with 1% of active substance, watered 24 hours at 29° C) it was 3 mm; in the assay on Aspergillus niger [9], 1 mm. For the same compound, the “Inhibitory values in ppm in bacteriostasis, Staphylococcus aureus (MIC)” value in the assay on Staphylococcus aureus [6] is 10 ppm.
